Assay results published in the supplement of paper PMC10307832.

Tests used:
Test in all cases: relative viability (nuclei count vs DMSO), 5 days (fraction); higher = more cells survive
[1] = compound: CN(C)C[C@@H]1CCn2cc(c3ccccc32)C2=C(C(=O)NC2=O)c2cn(c3ccccc23)CCO1 [Ruboxistaurin] + CC(=O)c1c(C)c2cnc(Nc3ccc(N4CCNCC4)cn3)nc2n(C2CCCC2)c1=O [Palbociclib] (partner 0.5 µM)
Summary of the method: (§1)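 One day after seeding in 1536-well plates, lung cancer cell lines were dosed by pin tool. Dosing was either single-drug or a fixed anchor-drug dose plus five library-drug doses (not always all listed) in √10 steps. After 5 days, nuclei were stained in one fix-and-stain step and counted on 4× images, and relative viability is the nuclei count of treated wells over that of vehicle wells, given as the median of duplicate plates.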

[2] = compound: CN(C)C[C@@H]1CCn2cc(c3ccccc32)C2=C(C(=O)NC2=O)c2cn(c3ccccc23)CCO1 [Ruboxistaurin] + C[C@]1(O)C[C@@H](c2nc(-c3ccc4ccc(-c5ccccc5)nc4c3)c3c(N)nccn32)C1 [Linsitinib] (partner 1 µM)
Summary of the method: as §1

Ruboxistaurin + AZD7762 = compound: CN(C)C[C@@H]1CCn2cc(c3ccccc32)C2=C(C(=O)NC2=O)c2cn(c3ccccc23)CCO1 [Ruboxistaurin] + NC(=O)Nc1cc(-c2cccc(F)c2)sc1C(=O)N[C@H]1CCCNC1 [AZD7762] (partner 0.2 µM)
Summary of the method: as §1

Ruboxistaurin + Olaparib = compound: CN(C)C[C@@H]1CCn2cc(c3ccccc32)C2=C(C(=O)NC2=O)c2cn(c3ccccc23)CCO1 [Ruboxistaurin] + O=C(c1cc(Cc2n[nH]c(=O)c3ccccc23)ccc1F)N1CCN(C(=O)C2CC2)CC1 [Olaparib] (partner 8 µM)
Summary of the method: as §1

[3] = compound: CN(C)C[C@@H]1CCn2cc(c3ccccc32)C2=C(C(=O)NC2=O)c2cn(c3ccccc23)CCO1 [Ruboxistaurin] + CCNC(=O)c1noc(-c2cc(C(C)C)c(O)cc2O)c1-c1ccc(CN2CCOCC2)cc1 [Luminespib] (partner 0.01 µM)
Summary of the method: as §1

Row | Cell Line | relative viability ([1]; first compound 0.08 µM) | relative viability ([1]; first compound 0.8 µM) | relative viability ([1]; first compound 2.53 µM) | relative viability ([1]; first compound 8 µM) | relative viability ([2]; first compound 0.08 µM) | relative viability ([2]; first compound 0.8 µM) | relative viability ([2]; first compound 2.53 µM) | relative viability ([2]; first compound 8 µM) | relative viability (Ruboxistaurin + AZD7762; first compound 0.08 µM) | relative viability (Ruboxistaurin + AZD7762; first compound 0.8 µM) | relative viability (Ruboxistaurin + AZD7762; first compound 2.53 µM) | relative viability (Ruboxistaurin + AZD7762; first compound 8 µM) | relative viability (Ruboxistaurin + Olaparib; first compound 0.08 µM) | relative viability (Ruboxistaurin + Olaparib; first compound 0.8 µM) | relative viability (Ruboxistaurin + Olaparib; first compound 2.53 µM) | relative viability (Ruboxistaurin + Olaparib; first compound 8 µM) | relative viability ([3]; first compound 0.08 µM) | relative viability ([3]; first compound 0.8 µM) | relative viability ([3]; first compound 2.53 µM) | relative viability ([3]; first compound 8 µM)
1 | HCC-366 | 0.401 | 0.354 | 0.392 | 0.328 | 0.691 | 0.526 | 0.68 | 0.33 | 0.187 | 0.284 | 0.27 | 0.178 | 0.4 | 0.364 | 0.372 | 0.269 |  |  |  | 
2 | HCC-827 | 0.529 | 0.478 | 0.621 | 0.489 | 0.933 | 0.962 | 0.951 | 1 | 0.26 | 0.199 | 0.239 | 0.201 | 0.655 | 0.647 | 0.695 | 0.624 | 0.748 | 0.708 | 0.627 | 0.612
3 | HOP-62 | 0.516 | 0.462 | 0.471 | 0.458 | 0.972 | 0.963 | 0.869 | 1 | 0.779 | 0.694 | 0.875 | 0.894 | 0.499 | 0.443 | 0.541 | 0.611 | 0.964 | 0.892 | 0.989 | 1.01
4 | IA-LM |  |  |  |  | 0.734 | 0.277 | 0.6 | 0.685 |  |  |  |  | 0.871 | 0.836 | 0.842 | 0.912 |  |  |  | 
5 | NCI-H520 | 0.236 | 0.222 | 0.246 | 0.185 | 0.991 | 0.998 | 0.985 | 1.12 |  |  |  |  | 0.321 | 0.341 | 0.328 | 0.291 | 0.227 | 0.182 | 0.227 | 0.225
6 | NCI-H596 |  |  |  |  | 1.14 | 1.01 | 1.08 | 0.857 | 1.14 | 0.942 | 0.972 | 0.812 | 0.545 | 0.59 | 0.692 | 0.659 | 0.93 | 0.943 | 1.26 | 0.794
7 | NCI-H661 | 0.424 | 0.416 | 0.437 | 0.46 | 0.809 | 0.538 | 0.718 | 0.545 |  |  |  |  | 0.844 | 0.717 | 0.795 | 0.81 | 0.883 | 0.817 | 0.942 | 1.01
8 | NCI-H1563 |  |  |  |  | 1.34 | 1.14 | 1.37 | 1.16 |  |  |  |  |  |  |  |  | 0.507 | 0.544 | 0.483 | 0.52
9 | NCI-H1650 | 0.416 | 0.324 | 0.455 | 0.372 |  |  |  |  |  |  |  |  | 0.854 | 0.709 | 0.907 | 0.981 | 0.185 | 0.207 | 0.189 | 0.183
10 | NCI-H1703 |  |  |  |  | 0.756 | 0.464 | 0.957 | 0.82 | 0.111 | 0.115 | 0.122 | 0.119 | 0.447 | 0.411 | 0.622 | 0.305 |  |  |  | 
11 | NCI-H2009 | 0.218 | 0.234 | 0.242 | 0.221 | 1.18 | 1.14 | 1.18 | 1.23 |  |  |  |  | 0.764 | 0.593 | 0.748 | 0.699 | 1.14 | 1.01 | 0.984 | 1.15
12 | NCI-H2023 | 0.381 | 0.31 | 0.333 | 0.393 | 0.721 | 0.53 | 0.616 | 0.492 |  |  |  |  | 0.519 | 0.458 | 0.447 | 0.296 | 0.679 | 0.426 | 0.668 | 0.344
13 | NCI-H2170 | 0.397 | 0.337 | 0.371 | 0.386 |  |  |  |  | 0.901 | 0.783 | 0.95 | 0.964 | 0.659 | 0.499 | 0.588 | 0.534 | 0.779 | 0.649 | 0.758 | 0.522
14 | NCI-H2228 | 0.845 | 0.631 | 0.863 | 0.693 | 0.847 | 0.481 | 0.681 | 0.751 |  |  |  |  | 0.643 | 0.564 | 0.889 | 0.696 | 0.173 | 0.172 | 0.125 | 0.111
15 | NCI-H2342 | 0.456 | 0.53 | 0.512 | 0.518 |  |  |  |  | 0.535 | 0.509 | 0.529 | 0.582 | 0.414 | 0.483 | 0.511 | 0.436 | 0.762 | 0.732 | 0.892 | 0.738
16 | SK-LU-1 | 0.427 | 0.342 | 0.429 | 0.381 | 1.14 | 0.975 | 0.991 | 0.854 |  |  |  |  | 0.483 | 0.397 | 0.536 | 0.469 | 0.208 | 0.212 | 0.204 | 0.2
17 | SK-MES-1 | 0.331 | 0.27 | 0.331 | 0.361 | 1.08 | 1 | 1.02 | 0.996 |  |  |  |  | 0.726 | 0.555 | 0.905 | 0.465 | 0.928 | 0.65 | 0.859 | 0.363
18 | SW 900 | 0.598 | 0.499 | 0.681 | 0.553 |  |  |  |  | 0.625 | 0.501 | 1.09 | 0.568 | 0.891 | 0.829 | 1.03 | 0.964 | 0.216 | 0.194 | 0.177 | 0.177
19 | SW 1573 | 0.433 | 0.371 | 0.354 | 0.523 | 0.879 | 0.839 | 0.799 | 0.772 |  |  |  |  | 0.494 | 0.369 | 0.595 | 0.482 | 0.232 | 0.208 | 0.314 | 0.182
20 | UMC-11 | 0.327 | 0.388 | 0.289 | 0.338 | 0.976 | 0.884 | 0.987 | 0.642 |  |  |  |  | 0.554 | 0.364 | 0.361 | 0.289 | 1.04 | 0.804 | 0.961 | 0.695
